Values of other authors, collected in patent US8486889B1, “Composition and method for the treatment and prevention of endothelial dysfunction” (Advanced Medical Instruments, priority 2001, dated 2013).

Columns and labels:
[1] = those on ASA
[2] = 325 mg ASA every other day
[3] = aspirin use
[4] = in a fast dissolving tablet
[5] = 500 mg/day, after one month
[6] = not given; remark: listed apart in the source
[7] = glucosamine combined with an NSAID, activity preserved
[8] = in vivo
[9] = Vioxx compared to naproxen
[10] = rabbit
[11] = rats, intragastric indomethacin, pre-treatment with zinc sulphate
[12] = taken orally, versus placebo
[13] = simultaneous administration of zinc
[14] = 600 mg per day, double-blind trial

CC(=O)Oc1ccccc1C(=O)O [ASA, Acetylsalicylic acid]
fewer strokes [1]: 42% | time to reach blood levels and inhibit platelet activity (chewing the tablet): 5 min | time to reach peak blood levels (in vivo): 30 min | reduction in the incidence of subsequent myocardial infarction, stroke, and death from cardiovascular causes ([2]; about 5 years): 25% | reduction in the incidence of first myocardial infarction ([2]; about 5 years, 22,000 US male physicians): 44% | reduction of the risk of breast cancer [3]: 20% | reduction of the risk of colorectal cancer [3]: 50% | reduction of the risk of lung cancer [3]: 30% | reduction of the risk of prostate cancer [3]: 50% | ASA absorbed by the buccal mucosa [4]: 16-35%

O=C1O[C@H]([C@@H](O)CO)C(O)=C1O [Ascorbic acid]
lowering of systolic blood pressure [5]: 10%

N[C@H]1C(O)O[C@H](CO)[C@@H](O)[C@@H]1O (stereo partly shown) [Glucosamine]
solubility [6]: very soluble in water | factor of decrease of the amount of NSAID required to produce an antiexudative result [7]: 2-2.7 times | absorbed in the GI tract [8]: 90%

COc1ccc2[nH]cc(CCNC(C)=O)c2c1 [Melatonin]
solubility [6]: high lipid and aqueous solubility

CS(=O)(=O)c1ccc(C2=C(c3ccccc3)C(=O)OC2)cc1 [Vioxx, rofecoxib]
risk of myocardial infarction [9]: four fold risk

CNC[C@H](O)c1ccc(O)c(O)c1 [epinephrine, Epinephrine]
time to peak of effectiveness ([10]; 2.5 mg sublingual tablet): 20.8 min | time to peak effectiveness ([10]; injection): 15.8 min

O=S(=O)([O-])[O-].[Zn+2] [zinc sulphate]
mucosal ulcerations [11]: completely prevented | rate of gastric ulcer healing [12]: three times the rate of a placebo

[Zn] [zinc]
salicylate-induced hearing loss [13]: completely prevented

Vitamin E
endothelial-dependent dilation of the brachial artery [14]: showed improvement
